Experimental data: PubChem BioAssay (NCI)
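Dose response: 5 concentrations. Exposure: 48 h. Format: 96-well plates. Endpoint: linear interpolation; highest concentration if not reached. At the TGI there is no net growth.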

Experiments:
Test in all cases: growth of human tumour cells (NCI), 48 h
MDA-MB-231 breast = test system: MDA-MB-231 breast
COLO 205 colon = test system: COLO 205 colon
HCT-116 colon = test system: HCT-116 colon
T-47D breast = test system: T-47D breast
SF-539 CNS = test system: SF-539 CNS
ACHN renal = test system: ACHN renal
A498 renal = test system: A498 renal
HOP-92 NSCLC = test system: HOP-92 NSCLC
SW-620 colon = test system: SW-620 colon
EKVX NSCLC = test system: EKVX NSCLC
SK-OV-3 ovarian = test system: SK-OV-3 ovarian
HOP-62 NSCLC = test system: HOP-62 NSCLC
MCF7 breast = test system: MCF7 breast
BT-549 breast = test system: BT-549 breast
M14 melanoma = test system: M14 melanoma
SF-268 CNS = test system: SF-268 CNS
OVCAR-3 ovarian = test system: OVCAR-3 ovarian
PC-3 prostate = test system: PC-3 prostate
NCI-H226 lung = test system: NCI-H226 lung
U251 CNS = test system: U251 CNS
HL-60(TB) leukemia = test system: HL-60(TB) leukemia
UACC-257 melanoma = test system: UACC-257 melanoma
K-562 leukemia = test system: K-562 leukemia
SK-MEL-28 melanoma = test system: SK-MEL-28 melanoma
SK-MEL-2 melanoma = test system: SK-MEL-2 melanoma
IGROV1 ovarian = test system: IGROV1 ovarian
KM12 colon = test system: KM12 colon
SN12C renal = test system: SN12C renal
HCC-2998 colon = test system: HCC-2998 colon
SK-MEL-5 melanoma = test system: SK-MEL-5 melanoma
SF-295 CNS = test system: SF-295 CNS
OVCAR-5 ovarian = test system: OVCAR-5 ovarian
CCRF-CEM leukemia = test system: CCRF-CEM leukemia
TK-10 renal = test system: TK-10 renal
NCI/ADR-RES ovarian = test system: NCI/ADR-RES ovarian
MDA-N = test system: MDA-N
DU-145 prostate = test system: DU-145 prostate
RPMI-8226 leukemia = test system: RPMI-8226 leukemia
CAKI-1 renal = test system: CAKI-1 renal
LOX IMVI melanoma = test system: LOX IMVI melanoma
MOLT-4 leukemia = test system: MOLT-4 leukemia
HCT-15 colon = test system: HCT-15 colon
A549 NSCLC = test system: A549 NSCLC
OVCAR-4 ovarian = test system: OVCAR-4 ovarian
UO-31 renal = test system: UO-31 renal
786-0 renal = test system: 786-0 renal
MDA-MB-435 = test system: MDA-MB-435
MALME-3M melanoma = test system: MALME-3M melanoma
SNB-19 CNS = test system: SNB-19 CNS
NCI-H522 lung = test system: NCI-H522 lung
OVCAR-8 ovarian = test system: OVCAR-8 ovarian
HS 578T breast = test system: HS 578T breast
RXF 393 renal = test system: RXF 393 renal
UACC-62 melanoma = test system: UACC-62 melanoma
NCI-H23 lung = test system: NCI-H23 lung
HT29 colon = test system: HT29 colon
NCI-H460 lung = test system: NCI-H460 lung

Measured: TGI

O=c1c(Cc2ccc(Cl)cc2)nnc2sc(-c3ccc(-c4ccc(Cl)cc4Cl)o3)nn12
> 100 µM: all assays above
